System: U1 cells
Experiment: FACS analysis of active caspase-3 expression
Type: cell-based
Details: 24 h, birinapant 50 nM, PEP005 5 nM, TNF-α 10 ng/ml
Procedure: Intracellular HIV-1 p24 levels and active form of caspase-3 expression were determined as previously described ([Hattori et al., 2009]; [Duro et al., 2010]; [Matsuda et al., 2015]). In brief, ACH-2 cells or U1 cells (2.5 × 10^5 cells/mL) were fixed with 1% paraformaldehyde/phosphate buffered saline (PBS) for 20 min and were permeabilized with Flow Cytometry Perm Buffer (TONBO biosciences, San Diego, CA, United States). After incubation on ice for 5 min, the cells were stained with anti-HIV-1 p24 (24-4)-FITC mAb (Santa Cruz Biotechnology, Dallas, TX, United States) and/or with Alexa Fluor 647-conjugated anti-active caspase-3 mAb (C92-605) (BD Pharmingen, San Diego, CA, United States) for 30 min on ice. Cells were then analyzed on a BD FACSVerse flow cytometer (BD Biosciences, Franklin Lakes, NJ, United States). The corrected data were analyzed with FlowJo software (Tree Star, San Carlos, CA, United States).
FIGURE 3 (A,B) ACH-2 (A) and U1 cells (B) were treated with birinapant (50 nM), PEP005 (5 nM), birinapant plus PEP005, TNF-α (10 ng/ml), and intracellular expression of caspase-3 was examined after 24 h of incubation. The percentage of active caspase-3 cells was determined by comparison with unstimulated cells. (C) ACH-2 cells after 24 h of PEP005 (0∼50 nM) treatment with or without birinapant (50 nM) were separately analyzed in p24^+ and p24^- populations for caspase-3 expression.

`C/C=C(/C)C(=O)O[C@H]1C(C)=C[C@]23C(=O)[C@@H](C=C(CO)[C@@H](O)[C@]12O)[C@H]1[C@@H](C[C@H]3C)C1(C)C` [PEP005, ingenol-3-angelate] was tested, and the “percentage of active caspase-3 cells” value was 10.8%.
